Measured values published in ChEMBL document CHEMBL1201862, “PubChem BioAssay data set” (2004).
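Cultured in 96-well plates, cells were exposed to test compound for 48 hours across five concentrations. GI50 is the concentration that inhibits growth by half.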 Active and inactive are the calls of the source. No stated cut-off is given here; in the data, active = GI50 up to about 1.1 µM and inactive = higher.

Tests used:
Assay in all cases: DTP human tumour cell line panel, 48 h
SK-MEL-2 = system: SK-MEL-2
Malme-3M = system: Malme-3M
OVCAR-5 = system: OVCAR-5
TK-10 = system: TK-10
EKVX = system: EKVX
MDA-MB-231 = system: MDA-MB-231
NCI-H226 = system: NCI-H226
OVCAR-4 = system: OVCAR-4
SK-MEL-28 = system: SK-MEL-28
SNB-75 = system: SNB-75
UACC-257 = system: UACC-257
SF-295 = system: SF-295
NCI-H522 = system: NCI-H522
COLO 205 = system: COLO 205
T47D = system: T47D
SK-OV-3 = system: SK-OV-3
Hs-578T = system: Hs-578T
OVCAR-3 = system: OVCAR-3
HOP-92 = system: HOP-92
HCT-116 = system: HCT-116
HL-60 = system: HL-60
MCF7 = system: MCF7
SNB-19 = system: SNB-19
CCRF-CEM = system: CCRF-CEM
OVCAR-8 = system: OVCAR-8
NCI/ADR-RES = system: NCI/ADR-RES
IGROV-1 = system: IGROV-1
ACHN = system: ACHN
K562 = system: K562
UO-31 = system: UO-31
RXF 393 = system: RXF 393
PC-3 = system: PC-3
NCI-H23 = system: NCI-H23
SR = system: SR
MDA-N = system: MDA-N
LOX IMVI = system: LOX IMVI
DU-145 = system: DU-145
M14 = system: M14
RPMI-8226 = system: RPMI-8226
HT-29 = system: HT-29
786-0 = system: 786-0
HCC 2998 = system: HCC 2998
SK-MEL-5 = system: SK-MEL-5
HOP-62 = system: HOP-62
SF-539 = system: SF-539
MDA-MB-435 = system: MDA-MB-435
SN12C = system: SN12C
KM12 = system: KM12
SW-620 = system: SW-620
UACC-62 = system: UACC-62
MOLT-4 = system: MOLT-4
CAKI-1 = system: CAKI-1
U-251 = system: U-251
SF-268 = system: SF-268
NCI-H460 = system: NCI-H460
HCT-15 = system: HCT-15
BT-549 = system: BT-549

COc1cc(/C=C/C(=O)c2ccc(O)c(OC)c2)ccc1O
GI50 (SK-MEL-2): 20.3 µM (inactive)
GI50 (Malme-3M): 22.3 µM (inactive)
GI50 (OVCAR-5): 24.8 µM (inactive)
GI50 (TK-10): 46.8 µM (inactive)
GI50 (EKVX): 12.3 µM (inactive)
GI50 (MDA-MB-231): 29.1 µM (inactive)
GI50 (NCI-H226): 24.5 µM (inactive)
GI50 (OVCAR-4): 24.3 µM (inactive)
GI50 (SK-MEL-28): 17.6 µM (inactive)
GI50 (SNB-75): 24.8 µM (inactive)
GI50 (UACC-257): 22.5 µM (inactive)
GI50 (SF-295): 20.6 µM (inactive)
GI50 (NCI-H522): 14.5 µM (inactive)
GI50 (COLO 205): 20.1 µM (inactive)
GI50 (T47D): 22.9 µM (inactive)
GI50 (SK-OV-3): 13.4 µM (inactive)
GI50 (Hs-578T): 17.5 µM (inactive)
GI50 (OVCAR-3): 18.7 µM (inactive)
GI50 (HOP-92): 27.2 µM (inactive)

CCOC(=O)c1ccc(/N=N/N(C)C(=O)C(C)N)cc1 (centres undefined)
GI50 (HCT-116): > 100 µM (inactive)
GI50 (SK-MEL-2): > 100 µM (inactive)
GI50 (Malme-3M): > 100 µM (inactive)
GI50 (OVCAR-5): > 100 µM (inactive)
GI50 (HL-60): > 100 µM (inactive)
GI50 (MCF7): > 100 µM (inactive)
GI50 (SNB-19): > 100 µM (inactive)
GI50 (CCRF-CEM): > 100 µM (inactive)
GI50 (OVCAR-8): > 100 µM (inactive)
GI50 (NCI/ADR-RES): > 100 µM (inactive)
GI50 (TK-10): > 100 µM (inactive)
GI50 (EKVX): > 100 µM (inactive)
GI50 (IGROV-1): 72.4 µM (inactive)
GI50 (ACHN): 49.5 µM (inactive)
GI50 (K562): > 100 µM (inactive)
GI50 (UO-31): 88.7 µM (inactive)
GI50 (RXF 393): > 100 µM (inactive)
GI50 (MDA-MB-231): > 100 µM (inactive)
GI50 (NCI-H226): > 100 µM (inactive)
GI50 (PC-3): > 100 µM (inactive)
GI50 (NCI-H23): > 100 µM (inactive)
GI50 (SR): 36.1 µM (inactive)
GI50 (MDA-N): 78.3 µM (inactive)
GI50 (LOX IMVI): > 100 µM (inactive)
GI50 (DU-145): > 100 µM (inactive)
GI50 (OVCAR-4): > 100 µM (inactive)
GI50 (SK-MEL-28): > 100 µM (inactive)
GI50 (SNB-75): 55.8 µM (inactive)
GI50 (UACC-257): > 100 µM (inactive)
GI50 (M14): > 100 µM (inactive)
GI50 (RPMI-8226): > 100 µM (inactive)
GI50 (HT-29): > 100 µM (inactive)
GI50 (786-0): > 100 µM (inactive)
GI50 (HCC 2998): > 100 µM (inactive)
GI50 (SK-MEL-5): > 100 µM (inactive)
GI50 (HOP-62): > 100 µM (inactive)
GI50 (SF-539): > 100 µM (inactive)
GI50 (SF-295): > 100 µM (inactive)
GI50 (MDA-MB-435): 56.8 µM (inactive)
GI50 (SN12C): > 100 µM (inactive)
GI50 (KM12): > 100 µM (inactive)
GI50 (NCI-H522): 86.5 µM (inactive)
GI50 (SW-620): > 100 µM (inactive)
GI50 (COLO 205): > 100 µM (inactive)
GI50 (T47D): > 100 µM (inactive)
GI50 (UACC-62): > 100 µM (inactive)
GI50 (MOLT-4): 43.7 µM (inactive)
GI50 (CAKI-1): 92.5 µM (inactive)
GI50 (U-251): > 100 µM (inactive)
GI50 (SF-268): > 100 µM (inactive)
GI50 (NCI-H460): 16.7 µM (inactive)
GI50 (HCT-15): > 100 µM
GI50 (BT-549): 98.6 µM (inactive)
GI50 (OVCAR-3): > 100 µM (inactive)
GI50 (HOP-92): 46.7 µM (inactive)
